Counter-ions that a name gives are not always drawn. Some results are limits rather than exact numbers.

Chain of SHP2 (Q06124 whole entry): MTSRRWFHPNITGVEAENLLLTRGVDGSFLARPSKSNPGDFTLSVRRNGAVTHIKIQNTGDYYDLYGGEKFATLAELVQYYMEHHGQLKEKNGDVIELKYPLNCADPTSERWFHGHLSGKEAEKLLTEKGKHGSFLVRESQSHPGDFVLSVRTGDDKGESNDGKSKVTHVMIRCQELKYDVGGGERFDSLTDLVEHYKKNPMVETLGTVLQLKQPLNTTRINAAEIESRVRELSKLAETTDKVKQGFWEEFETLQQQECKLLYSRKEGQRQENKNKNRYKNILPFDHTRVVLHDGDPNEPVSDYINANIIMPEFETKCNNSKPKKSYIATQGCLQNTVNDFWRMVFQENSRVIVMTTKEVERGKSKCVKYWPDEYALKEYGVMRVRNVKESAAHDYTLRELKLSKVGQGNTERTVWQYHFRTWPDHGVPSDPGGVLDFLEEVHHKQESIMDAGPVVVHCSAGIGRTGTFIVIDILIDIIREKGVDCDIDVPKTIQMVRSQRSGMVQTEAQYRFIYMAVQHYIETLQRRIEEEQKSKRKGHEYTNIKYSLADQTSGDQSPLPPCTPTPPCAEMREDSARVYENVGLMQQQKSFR

The test has as its target SHP2 (Homo sapiens (Human), UniProt Q06124). In words: SHP2 Allosteric Inhibition Assay (DiFMUP prompt fluorescence). Conditions: 0.25 nM SHP2 activated with 0.5 μM peptide IRS1_pY1172(dPEG8)pY1222; substrate DiFMUP 100 μM; 25° C. The test is classed as biochemical.
As for `CO/N=C/c1ccc2c(n1)[C@@H](C)CCN2c1n[nH]c2nc(N3CCC4(CC3)CO[C@@H](C)[C@H]4N)cnc12` [Compound 444, (3S,4S)-8-{3-[(4S)-6-[(1E)-(methoxyimino)methyl]-4-methyl-1,2,3,4-tetrahydro-1,5-naphthyridin-1-yl]-1H-pyrazolo[3,4-b]pyrazin-6-yl}-3-methyl-2-oxa-8-azaspiro[4.5]decan-4-amine hydrochloride], the concentration for half-maximal inhibition (IC50) was less than 1000 nM. The result for `C[C@@H]1OCC2(CCN(c3cnc4c(N5CCCc6nc(/C=N\O)ccc65)n[nH]c4n3)CC2)[C@@H]1N` [Compound 436, (3S,4S)-8-(3-{6-[(1Z)-(hydroxyimino)methyl]-1,2,3,4-tetrahydro-1,5-naphthyridin-1-yl}-1H-pyrazolo[3,4-b]pyrazin-6-yl)-3-methyl-2-oxa-8-azaspiro[4.5]decan-4-amine hydrochloride] reads less than 1000 nM; that for `COC(=O)NCC1(C)CCN(c2cnc3c(N4CCCc5cc(C#N)ccc54)n[nH]c3n2)CC1` [Compound 174, methyl ((1-(3-(6-cyano-3,4-dihydroquinolin-1(2H)-yl)-1H-pyrazolo[3,4-b]pyrazin-6-yl)-4-methylpiperidin-4-yl)methyl)carbamate], not below 10000 nM; that for `C[C@@H]1OCC2(CCN(c3cnc4c(N5CCC(C(F)F)c6cc(C#N)ccc65)n[nH]c4n3)CC2)[C@@H]1N` (some centres unmarked) [Compound 283], less than 1000 nM. The same measure for `C[C@@H]1OCC2(CCN(c3cnc4c(N5CC(=O)Nc6ncncc65)n[nH]c4n3)CC2)[C@@H]1N` [Compound 322]: 1000 to 10000 nM; for `CC1(CN)CCN(c2cnc3c(N4CCc5c(C#N)cccc54)n[nH]c3n2)CC1` [Compound 164]: less than 1000 nM; for `N[C@H]1CCC[C@@]12CCN(c1cnc3c(N4CCCc5ncccc54)n[nH]c3n1)C2` (stereo in doubt) [Compound 205, rel-(5S,6S)-2-(3-(3,4-dihydro-1,5-naphthyridin-1(2H)-yl)-1H-pyrazolo[3,4-b]pyrazin-6-yl)-2-azaspiro[4.4]nonan-6-amine]: 1000 to 10000 nM. The compound `C[C@@H]1OCC2(CCN(c3cnc4c(N5CCCc6nc(C7CCOC7)ccc65)n[nH]c4n3)CC2)[C@@H]1N` (stereo partly drawn) [Compound 309, (3S,4S)-3-methyl-8-(3-(6-(tetrahydrofuran-3-yl)-3,4-dihydro-1,5-naphthyridin-1(2H)-yl)-1H-pyrazolo[3,4-b]pyrazin-6-yl)-2-oxa-8-azaspiro[4.5]decan-4-amine] returned a 50% inhibitory concentration (IC50) of less than 1000 nM. For `CC1(CN)CCN(c2cnc3c(Nc4ccnc(Cl)c4Cl)n[nH]c3n2)C1` (centres unmarked) [Compound 499, 6-(3-(Aminomethyl)-3-methylpyrrolidin-1-yl)-N-(2,3-dichloropyridin-4-yl)-1H-pyrazolo[3,4-b]pyrazin-3-amine], the IC50 was less than 1000 nM. The same measure for `CNC(=O)C1CCN(c2n[nH]c3nc(N4CCC(C)(CN)CC4)cnc23)c2ccccc21` (centres unmarked) [Compound 100, 1-(6-(4-(Aminomethyl)-4-methylpiperidin-1-yl)-1H-pyrazolo[3,4-b]pyrazin-3-yl)-N-methyl-1,2,3,4-tetrahydroquinoline-4-carboxamide]: less than 1000 nM. The same measure for `CNC(=O)c1ccc2c(c1)[C@@H](C)CCN2c1n[nH]c2nc(N3CCC4(CC3)CO[C@@H](C)[C@H]4N)cnc12` [Compound 288, (4S)-1-{6-[(3S,4S)-4-amino-3-methyl-2-oxa-8-azaspiro[4.5]decan-8-yl]-1H-pyrazolo[3,4-b]pyrazin-3-yl}-N,4-dimethyl-1,2,3,4-tetrahydroquinoline-6-carboxamide]: less than 1000 nM; for `Cc1coc(-c2ccc3c(n2)CCCN3c2n[nH]c3nc(N4CCC5(CC4)CO[C@@H](C)[C@H]5N)cnc23)n1` [Compound 328]: less than 1000 nM. The compound `C[C@@H]1OCC2(CCN(c3cnc4c(N5CCN(C)c6cc(-c7nccs7)ccc65)n[nH]c4n3)CC2)[C@@H]1N` [Compound 415] yielded an IC50 of less than 1000 nM. The same measure for `C[C@@H]1OCC2(CCN(c3cnc4c(N5CCCc6c5ccc(C#N)c6S(C)(=O)=O)n[nH]c4n3)CC2)[C@@H]1N` [Compound 388]: 1000 to 10000 nM. For the compound `C[C@@H]1OCC2(CCN(c3cnc4c(N5CCCc6c(-c7cnn(C)c7)cccc65)n[nH]c4n3)CC2)[C@@H]1N` [Compound 209], the IC50 was less than 1000 nM. For the compound `CC1(CN)CCN(c2cnc3c(Nc4ccnc(N)c4Cl)n[nH]c3n2)CC1` [Compound 498, N^4-(6-(4-(aminomethyl)-4-methylpiperidin-1-yl)-1H-pyrazolo[3,4-b]pyrazin-3-yl)-3-chloropyridine-2,4-diamine], the IC50 was less than 1000 nM. As to `CC1(N)CCN(c2cnc3c(SC4CCCNC4)n[nH]c3n2)CC1` (centres unmarked) [Compound 492, 4-methyl-1-(3-(piperidin-3-ylthio)-1H-pyrazolo[3,4-b]pyrazin-6-yl)piperidin-4-amine], the IC50 was not below 10000 nM.

Consider `C[C@@H]1OCC2(CCN(c3cnc4c(N5CC[C@H](C)c6nc(-c7nnc[nH]7)ccc65)n[nH]c4n3)CC2)[C@@H]1N` [Compound 454, (3S,4S)-3-methyl-8-{3-[(4S)-4-methyl-6-(4H-1,2,4-triazol-3-yl)-1,2,3,4-tetrahydro-1,5-naphthyridin-1-yl]-1H-pyrazolo[3,4-b]pyrazin-6-yl}-2-oxa-8-azaspiro[4.5]decan-4-amine], for which the IC50 was less than 1000 nM. In the case of `C[C@@H]1OCC2(CCN(c3cnc4c(N5CCOc6nc(-c7cnn(C)c7)ccc65)n[nH]c4n3)CC2)[C@@H]1N` [Compound 324], the half-maximal inhibitory concentration (IC50) is less than 1000 nM. The same measure for `C[C@@H]1OCC2(CCN(c3cnc4c(N5CCCc6c5cccc6N(C)S(C)(=O)=O)n[nH]c4n3)CC2)[C@@H]1N` [Compound 374]: less than 1000 nM; for `C[C@@H]1OCC2(CCN(c3cnc4c(N5CCCc6nc(-c7cnn(C)c7)ccc65)n[nH]c4n3)CC2)[C@@H]1N` [Compound 224, (3S,4S)-3-methyl-8-(3-(6-(1-methyl-1H-pyrazol-4-yl)-3,4-dihydro-1,5-naphthyridin-1(2H)-yl)-1H-pyrazolo[3,4-b]pyrazin-6-yl)-2-oxa-8-azaspiro[4.5]decan-4-amine]: less than 1000 nM; for `C[C@@H]1CCN(c2n[nH]c3nc(N4CCC5(CC4)CO[C@@H](C)[C@H]5N)cnc23)c2ccc(C#N)c(F)c21` (single isomer, unassigned) [Compound 229]: less than 1000 nM. `C[C@H]1CCN(c2n[nH]c3nc(N4CCC(C)(CN)CC4)cnc23)c2ccc(-c3ncon3)cc21` [Compound 183, 1-(4-methyl-1-{3-[(4S)-4-methyl-6-(1,2,4-oxadiazol-3-yl)-1,2,3,4-tetrahydroquinolin-1-yl]-1H-pyrazolo[3,4-b]pyrazin-6-yl}piperidin-4-yl)methanamine] registered an IC50 of less than 1000 nM. The same measure for `COC1(CN)CCN(c2cnc3c(N4CCCc5ncccc54)n[nH]c3n2)CC1` [Compound 101, (1-(3-(3,4-dihydro-1,5-naphthyridin-1(2H)-yl)-1H-pyrazolo[3,4-b]pyrazin-6-yl)-4-methoxypiperidin-4-yl)methanamine]: less than 1000 nM; for `CC1(CN)CCN(c2cnc3c(N4CCC(C(F)F)c5cc(C#N)ccc54)n[nH]c3n2)CC1` (centres unmarked) [Compound 181, 1-{6-[4-(aminomethyl)-4-methylpiperidin-1-yl]-1H-pyrazolo[3,4-b]pyrazin-3-yl}-4-(difluoromethyl)-1,2,3,4-tetrahydroquinoline-6-carbonitrile]: less than 1000 nM; for `c1ccc(C2CCN(c3cnc4c(N5CCCc6ncccc65)n[nH]c4n3)C2)cc1` (centres unmarked) [Compound 151]: not below 10000 nM.

Compound `C[C@@H]1OCC2(CCN(c3cnc4c(N5CCCc6c5ccc(C#N)c6[C@@H]5CC(=O)N(C)C5)n[nH]c4n3)CC2)[C@@H]1N` [Compound 519] yielded a 50% inhibitory concentration (IC50) of less than 1000 nM. The same measure for `CNC(=O)c1ccc2c(c1)N(C)CCN2c1n[nH]c2nc(N3CCC4(CC3)CO[C@@H](C)[C@H]4N)cnc12` [Compound 366, 1-{6-[(3S,4S)-4-amino-3-methyl-2-oxa-8-azaspiro[4.5]decan-8-yl]-1H-pyrazolo[3,4-b]pyrazin-3-yl}-N,4-dimethyl-1,2,3,4-tetrahydroquinoxaline-6-carboxamide]: less than 1000 nM; for `C[C@@H]1OCC2(CCN(c3cnc4c(N5CCCc6nc(-c7cnoc7)ccc65)n[nH]c4n3)CC2)[C@@H]1N` [Compound 380, (3S,4S)-3-methyl-8-{3-[6-(1,2-oxazol-4-yl)-1,2,3,4-tetrahydro-1,5-naphthyridin-1-yl]-1H-pyrazolo[3,4-b]pyrazin-6-yl}-2-oxa-8-azaspiro[4.5]decan-4-amine]: less than 1000 nM; for `N[C@@H]1COCC12CCN(c1cnc3c(N4CCCc5ncccc54)n[nH]c3n1)CC2` [Compound 214]: less than 1000 nM.

Compound `C#Cc1ccc2c(n1)CCCN2c1n[nH]c2nc(N3CCC4(CC3)CO[C@@H](C)[C@H]4N)cnc12` [Compound 410] came in with a concentration for half-maximal inhibition (IC50) of less than 1000 nM.

`CC(=O)N1CCN(c2n[nH]c3nc(N4CCC(C)(CN)CC4)cnc23)c2ccc(C#N)cc21` [Compound 187] had an IC50 of less than 1000 nM. The same measure for `C[C@@H]1OCC2(CCN(c3cnc4c(N5CC[C@H](C)c6cc(-c7ncon7)ccc65)n[nH]c4n3)CC2)[C@@H]1N` [Compound 227, (3S,4S)-3-methyl-8-(3-((S)-4-methyl-6-(1,2,4-oxadiazol-3-yl)-3,4-dihydroquinolin-1(2H)-yl)-1H-pyrazolo[3,4-b]pyrazin-6-yl)-2-oxa-8-azaspiro[4.5]decan-4-amine]: less than 1000 nM.

The compound `C[C@@H]1OCC2(CCN(c3cnc4c(N5CCc6ncccc6C5)n[nH]c4n3)CC2)[C@@H]1N` [Compound 267] came in with a concentration for half-maximal inhibition (IC50) of less than 1000 nM. Regarding `C[C@@H]1OCC2(CCN(c3cnc4c(N5CCCc6nc(N7CC[C@@H](O)C7)ccc65)n[nH]c4n3)CC2)[C@@H]1N` [Compound 260], the 50% inhibitory concentration (IC50) is less than 1000 nM. The result for `C[C@@H]1OCC2(CCN(c3cnc4c(N5CCCc6c5ccnc6N5CCOC5=O)n[nH]c4n3)CC2)[C@@H]1N` [Compound 225] reads less than 1000 nM; that for `C[C@@H]1OCC2(CCN(c3cnc4c(N5CCc6cccc(C#N)c6C5)n[nH]c4n3)CC2)[C@@H]1N` [Compound 359], 1000 to 10000 nM; that for `CC(=O)N1CCN(c2n[nH]c3nc(N4CCC5(CC4)CO[C@@H](C)[C@H]5N)cnc23)c2ccccc21` [Compound 235], less than 1000 nM.

The IC50 is the concentration that inhibits the measured activity by half. A higher IC50 goes with a need for much substance.

The record behind these values is patent US11591336B2 (Relay Therapeutics, Inc., priority 2017, dated 2023).
